How the values were obtained:
[1] = tested on: mouse lymphoma cells; parameters: method as in PMID 16171869; settings: read-out: IC50 cytotoxicity; cited from earlier work
[2] = molecular target: T1, hen egg white lysozyme (HEWL) (Gallus gallus, UniProt P00698); assay: Intrinsic fluorescence quenching of HEWL (Stern-Volmer, double logarithmic and van't Hoff analysis); format: binding; settings: for KSV (Stern-Volmer quenching constant): HEWL 3 µM; for kq (bimolecular quenching rate constant): kq = KSV/τ0, τ0 10^−8 s; for blue shift of HEWL emission maximum on quenching: excitation 295 nm, emission maximum 345 nm; for fluorescence quenching mechanism: from KSV versus temperature and kq; for main forces / modes of interaction stabilizing the bioconjugate: from signs of ΔH^0 and ΔS^0; for binding constant, order of magnitude: summary of table 1; for ΔH^0 (enthalpy change of binding) / ΔS^0 (entropy change of binding): van't Hoff plot over 293–308 K
T1 construct: whose 129 amino acid residues are linked together by four disulfide bridges to form a single polypeptide chain; purchased Sigma-Aldrich L6876; host or cells: hen egg white (natural source, per the protein's name)
Method: The intrinsic fluorescence spectra of HEWL (3 µM) in the absence and presence of Ga(DAC)3, In(DAC)3 and VO(DAC)2 complexes were collected using a Varian Cary Eclipse fluorescence spectrophotometer equipped with a 10 mm quartz cell by adjusting the excitation wavelength to 295 nm and setting the width of both excitation and emission slits at 5 nm. After adding the mentioned concentrations of the metal complexes of diacetylcurcumin to HEWL solution, the samples were scanned in the wavelength range of 300–500 nm. Corrections were made for the inner filter effect on the fluorescence spectra according to the following equation: Fcor=Fobs×10^(Aex+Aem)/2, where Fcor is corrected fluorescence intensity, Fobs is the observed (uncorrected) fluorescence intensity, Aex is the absorbance at the fluorescence excitation wavelength and Aem is the absorbance at the selected fluorescence emission wavelength.
The fluorescence quenching process of HEWL in the presence of three metal complexes of diacetylcurcumin can be quantified according to the well-known Stern-Volmer equation:3.1 F0/F=1+KSV[Q]=1+kqτ0[Q],
where F0 and F represent the intrinsic emission intensities of HEWL fluorophores, respectively, in the absence and presence of the metal complexes of diacetylcurcumin, and [Q] is the molar concentration of quencher. KSV, kq and τ0 denote the Stern-Volmer quenching constant, bimolecular quenching rate constant, and the average lifetime of fluorophore without quencher, respectively. The value of KSV, as a parameter of the sensitivity of the fluorophore to a quencher, can be estimated from the slope of the linear plot of F0/F as a function of [Q] (figure 2d,e,f; electronic supplementary material, figure S1). To obtain more accurate quantification of fluorescence data, the total area of the emission fluorescence peaks (S0 and S) was applied instead of the emission fluorescence intensities (F0 and F). The fluorescence quenching phenomenon can be generally divided into two distinct classes: static quenching and dynamic quenching. Owing to the reciprocal and direct correlations between the KSV parameter and temperature, respectively, for static and dynamic quenching, the observed trend in the KSV value versus temperature can be used to distinguish these mechanisms from each other. In dynamic quenching, an increase in temperature leads to faster diffusion of molecules by which weakly bound nonfluorescent complexes are further dissociated, and the value of KSV increases. From the data recorded in table 1, it can be seen that the KSV value of HEWL/Ga(DAC)3 and HEWL/In(DAC)3 systems decreases as temperature increases, while it increases with increasing temperature for the HEWL/VO(DAC)2 system. […] Considering a lifetime value of 10^−8 s for the native fluorophores, [27] the equation kq = KSV/τ0 gives the kq values greater than the diffusion-limited quenching value of 2.0 × 10 ^+ 10 M^−1 s^−1 for all systems.
Assuming that all the binding sites of HEWL are identical and independent and an equilibrium interaction is established between HEWL and each of the metal complexes of diacetylcurcumin, the fluorescence quenching process can be further analysed by the following double logarithmic equation:3.2 log(F0−F/F)=logKb+nlog[Q], where Kb and n represent the binding constant and number of binding sites on each HEWL molecule, respectively. Plotting log[(F0 − F)/F] versus log[Q] produces a straight line whose slope and intercept can be used respectively to estimate the values of n and Kb (electronic supplementary material, figures S2A, S2B, S2C and S3). […] In other words, the resulting bioconjugates are the product of the interaction between HEWL and the metal complexes of diacetylcurcumin with a 1 : 1 stoichiometry. […]

[3] = molecular target: T2, HEWL amyloid fibrils (Gallus gallus, UniProt P00698); assay: Thioflavin T fluorescence assay of HEWL amyloid fibrillation; format: biochemical, hen; settings: HEWL 70 µM, complex 10 µM; for effect on amyloid fibrillation of HEWL (ThT fluorescence): pH 2.0, 140 min incubation
T2 construct: whose 129 amino acid residues are linked together by four disulfide bridges to form a single polypeptide chain; purchased Sigma-Aldrich L6876; host or cells: hen egg white (natural source, per the protein's name)
Method: To prepare HEWL amyloid fibrils, a solution of the protein (5 ml, 70 µM) was prepared in 100 mM PBS, and the pH adjusted to 2.0 using hydrochloric acid. The solution was then incubated in a shaker incubator bath at 450 rpm and 58°C for 140 min. To investigate the effect of the diacetylcurcumin-based metal complexes on HEWL amyloid fibrillation, three separate samples, each containing HEWL (70 µM) and one of the metal complexes of diacetylcurcumin (10 µM), were prepared and incubated under the above conditions.
For ThT assay, a 17 µl volume of the incubated HEWL (70 µM) samples was added to 983 µl of ThT solution for the final HEWL and ThT concentrations of 1.2 µM and 20 µM, respectively. ThT spectra containing the incubated HEWL/metal complexes were recorded 5 min after recording the spectrum of ThT solution as control solution. All spectra were recorded using a Varian Cary Eclipse fluorescence spectrophotometer at 25°C. ThT solution was excited with a 440 nm wavelength and emission fluorescence spectra were recorded in the wavelength range of 450–600 nm.
Enhancement of ThT fluorescence intensity upon its rapid and strong binding to the cross β-sheet structure of amyloid fibrils is important evidence to confirm the amyloid fibril formation of proteins. The inhibitory activities of Ga(DAC)3, In(DAC)3 and VO(DAC)2 complexes on the amyloid fibrillation process of HEWL were explored by ThT fluorescence assay over 140 min period of incubation at pH 2.0. The kinetics of the fibrillation process in the absence and presence of the considered complexes is depicted in figure 4a.
To estimate the lag time and apparent rate constant for growth of fibrils, the following equation was employed on the ThT fluorescence data: F=Fmin+Fmax/1+e^−(t−t0/τ),
where F is the fluorescence intensity in t, Fmin and Fmax are fluorescence intensities in initial time and saturation phase, respectively, t is incubation time and t0 is required time to get 50% of maximal fluorescence intensity. The apparent rate constant, kapp, is given by 1/τ and the lag time is approximated by t0 − 2τ. […]

T1 sequence (P00698 19-147): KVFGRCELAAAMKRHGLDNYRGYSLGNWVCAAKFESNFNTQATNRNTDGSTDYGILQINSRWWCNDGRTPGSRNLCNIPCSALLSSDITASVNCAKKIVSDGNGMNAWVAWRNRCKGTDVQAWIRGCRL
T2 sequence (P00698 19-147): as above

n (number of binding sites on each HEWL molecule) ([2]; T 293 K)	ΔG^0 (Gibbs free energy change of binding) ([2]; T 293 K) [kcal/mol]	KSV (Stern-Volmer quenching constant) ([2]; T 293 K)	kq (bimolecular quenching rate constant) ([2]; T 293 K)	n (number of binding sites on each HEWL molecule) ([2]; T 303 K)	ΔG^0 (Gibbs free energy change of binding) ([2]; T 303 K) [kcal/mol]	KSV (Stern-Volmer quenching constant) ([2]; T 303 K)	kq (bimolecular quenching rate constant) ([2]; T 303 K)	n (number of binding sites on each HEWL molecule) ([2]; T 308 K)	ΔG^0 (Gibbs free energy change of binding) ([2]; T 308 K) [kcal/mol]	KSV (Stern-Volmer quenching constant) ([2]; T 308 K)	kq (bimolecular quenching rate constant) ([2]; T 308 K)	blue shift of HEWL emission maximum on quenching [2] [nm]	binding constant, order of magnitude [2]	ΔH^0 (enthalpy change of binding) [2] [kcal/mol]	ΔS^0 (entropy change of binding) [2] [J mol^−1 K^−1]	effect on amyloid fibrillation of HEWL (ThT fluorescence) [3]	SMILES	IC50 [1] [µM]	fluorescence quenching mechanism [2]	main forces / modes of interaction stabilizing the bioconjugate [2]	further results
(1.26 ± 0.01)	-8.368 ± 0.0024	(0.10 ± 0.00) × 10^+6 M^−1	(0.10 ± 0.00) × 10^+14 M^−1 s^−1	(1.25 ± 0.04)	-8.65 ± 0.0024	(9.61 ± 0.10) × 10^+5 M^−1	(9.61 ± 0.10) × 10^+13 M^−1 s^−1	(1.25 ± 0.02)	-8.788 ± 0.0024	(1.04 ± 0.02) × 10^+5 M^−1	(1.04 ± 0.02) × 10^+13 M^−1 s^−1	4	10^+6 M^−1	-0.148 ± 0	117.38 ± 0.01	considerable delaying effect	COc1cc(C=CC(=O)C=C([O-])C=Cc2ccc(OC(C)=O)c(OC)c2)ccc1OC(C)=O.COc1cc(C=CC(=O)C=C([O-])C=Cc2ccc(OC(C)=O)c(OC)c2)ccc1OC(C)=O.COc1cc(C=CC(=O)C=C([O-])C=Cc2ccc(OC(C)=O)c(OC)c2)ccc1OC(C)=O.[In+3] [In(DAC)3, indium diacetylcurcumin]	20 to 25	static mechanism	electrostatic interactions	effect on lag time and t0 of fibrillation ([3]; pH 2.0): significant increase in the lag time and t0
(1.35 ± 0.04)	-8.217 ± 0.858	(2.70 ± 0.02) × 10^+4 M^−1	(2.70 ± 0.02) × 10^+12 M^−1 s^−1	(0.93 ± 0.02)	-5.767 ± 0.858	(2.78 ± 0.03) × 10^+4 M^−1	(2.78 ± 0.03) × 10^+12 M^−1 s^−1	(0.75 ± 0.04)	-4.543 ± 0.858	(2.80 ± 0.02) × 10^+4 M^−1	(2.80 ± 0.02) × 10^+12 M^−1 s^−1	2	10^+6 to 10^+3 M^−1	-79.988 ± 0.246	−1024.87 ± 3.44	highest inhibitory effect	COc1cc(/C=C/C(=O)C=C([O-])/C=C/c2ccc(OC(C)=O)c(OC)c2)ccc1OC(C)=O.COc1cc(/C=C/C(=O)C=C([O-])/C=C/c2ccc(OC(C)=O)c(OC)c2)ccc1OC(C)=O.[O]=[V+2] [VO(DAC)2, vanadyl diacetylcurcumin]	7 to 10	dual mechanism, including both static and dynamic quenching	van der Waals interactions and hydrogen bonds	n (number of binding sites on each HEWL molecule) ([2]; T 298 K): (1.15 ± 0.03); ΔG^0 (Gibbs free energy change of binding) ([2]; T 298 K): -6.993 ± 0.858 kcal/mol; KSV (Stern-Volmer quenching constant) ([2]; T 298 K): (2.70 ± 0.04) × 10^+4 M^−1; kq (bimolecular quenching rate constant) ([2]; T 298 K): (2.70 ± 0.04) × 10^+12 M^−1 s^−1

From paper PMC10645073, “Interaction of gallium, indium and vanadyl diacetylcurcumin complexes with lysozyme: mechanistic aspects and evaluation of antiamyloidogenic activity” (Royal Society Open Science, 2023)
